Results on six molecules are retold here after PubChem BioAssay AID720598 (Broad Institute, 2013).

Molecules are shown by their SMILES. A value given as a limit tells only on which side of the number the result lay.

The assay deals with HT-29 viability, CellTiter-Glo ATP luminescence, 8-48 h. Nature of the assay: time-course viability loss in HT-29 cells – cell-based, CellTiter-Glo, multiple timepoints, dry powder, HRas target identification project, dose response (AID 720598).

With `Cc1onc(C(=O)N2CCN(C(c3ccc(Cl)cc3)c3ccc(Cl)cc3)CC2)c1[N+](=O)[O-]`, the AC50 is, setting by setting: (measured here: 8 h treatment) 2760 nM; (measured here: 24 h treatment) 594 nM; (measured here: 48 h treatment) 544 nM.
`C#CCCCC(=O)NCCOCCOCCOc1ccc(N(C(=O)CCl)C(C(=O)NCCc2ccccc2)c2cccs2)cc1Cl` (stereo unspecified) had an AC50 (measured here: 8 h treatment) of 11900 nM, a half-maximal activity concentration (AC50) (measured here: 24 h treatment) of 1510 nM and an AC50 (measured here: 48 h treatment) of 1300 nM.
For the molecule `CCC(=O)N(c1ccc(OC)c(Cl)c1)C(C(=O)NCCc1ccccc1)c1cccs1` (stereo unspecified), the AC50 (measured here: 48 h treatment) is more than 70000 nM.
Regarding `COC(=O)c1ccc([C@@H]2c3[nH]c4ccccc4c3C[C@@H](C(=O)OC)N2C(=O)CCl)cc1`, the AC50 reads like this: (measured here: 8 h treatment) 486 nM; (measured here: 24 h treatment) 133 nM; (measured here: 48 h treatment) 85.6 nM.
The matching figures for `COc1ccc(N(C(=O)CCl)C(C(=O)NCCc2ccccc2)c2cccs2)cc1Cl` (stereo unspecified): 729 nM, 103 nM and 56.1 nM.
The matching figures for `CC(C)(C)OC(=O)NCCOCCOCCOc1ccc(N(C(=O)CCl)C(C(=O)NCCc2ccccc2)c2cccs2)cc1Cl` (stereo unspecified): 742 nM, 448 nM and 287 nM.
